Results published in ChEMBL document CHEMBL1154660, “Synthesis of pyrrolo[2,3-d]pyrimidine derivatives and their antiproliferative activity against melanoma cell line” (Bioorg Med Chem Lett, 2009).

Tests used:
[1] = Antiproliferative activity against human A375P cells after 24 hrs by MTT assay; type: functional, cell-based
HS27 = experiment: Antiproliferative activity against human HS27 cells after 24 hrs by MTT assay; type: cell-based; conditions: HS27, 24 h

SMILES	IC50 [1] [µM]	IC50 (HS27) [µM]
O=C(Nc1ccc(-n2ccc3c(NC(=O)c4ccccc4)ncnc32)cc1)c1ccc(Cl)c(Cl)c1	2	5
Nc1ncnc2c1ccn2-c1ccc(NC(=O)c2cccc(C(F)(F)F)c2)cc1	9.7	7.1
Cc1cn(-c2cc(C(=O)Nc3ccc(-n4ccc5c(NC(=O)c6ccccc6)ncnc54)cc3)cc(C(F)(F)F)c2)cn1	0.8	2.8
CC(=O)Nc1ncnc2c1ccn2-c1ccc(NC(=O)Nc2cccc(Cl)c2Cl)cc1	> 10	> 10
O=C(Nc1ccc(-n2ccc3c(NC(=O)c4ccccc4)ncnc32)cc1)Nc1cc(C(F)(F)F)cc(C(F)(F)F)c1	9.8	> 10
O=C(Nc1ccc(-n2ccc3c(NC(=O)c4ccccc4)ncnc32)cc1)Nc1ccc(Cl)c(Cl)c1	4	4.5
Nc1ncnc2c1ccn2-c1ccc(NC(=O)Nc2ccc(Cl)c(Cl)c2)cc1	5.4	2.9
O=C(Nc1ccc(-n2ccc3c(NC(=O)c4ccccc4)ncnc32)cc1)Nc1cccc(Cl)c1Cl	4.1	7.8
CC(=O)Nc1ncnc2c1ccn2-c1ccc(NC(=O)Nc2ccc(Cl)c(C(F)(F)F)c2)cc1	> 10	> 10
CC(=O)Nc1ncnc2c1ccn2-c1ccc(NC(=O)c2ccc(Cl)c(C(F)(F)F)c2)cc1	> 10	> 10
O=C(Nc1ccc(-n2ccc3c(NC(=O)c4ccccc4)ncnc32)cc1)c1ccc(N2CCOCC2)c(C(F)(F)F)c1	0.9	1.6
O=C(Nc1ccc(-n2ccc3c(NC(=O)c4ccccc4)ncnc32)cc1)c1cc(C(F)(F)F)cc(C(F)(F)F)c1	2	6.6
CNC(=O)c1cc(Oc2ccc(NC(=O)Nc3ccc(Cl)c(C(F)(F)F)c3)cc2)ccn1 [SORAFENIB]	5.6	–
O=C(Nc1ccc(-n2ccc3c(NC(=O)c4ccccc4)ncnc32)cc1)Nc1ccc(Cl)c(C(F)(F)F)c1	4.6	6
Nc1ncnc2c1ccn2-c1ccc(NC(=O)c2ccc(Cl)c(C(F)(F)F)c2)cc1	2.9	5.6
O=C(Nc1ccc(-n2ccc3c(NC(=O)c4ccccc4)ncnc32)cc1)c1cccc(C(F)(F)F)c1	4.7	5.9
Nc1ncnc2c1ccn2-c1ccc(NC(=O)Nc2ccc(Cl)c(C(F)(F)F)c2)cc1	8.1	> 10
O=C(Nc1ccc(-n2ccc3c(NC(=O)c4ccccc4)ncnc32)cc1)Nc1cccc(C(F)(F)F)c1	9.5	4.5
Nc1ncnc2c1ccn2-c1ccc(NC(=O)Nc2cc(C(F)(F)F)cc(C(F)(F)F)c2)cc1	3	9.5
O=C(Nc1ccc(-n2ccc3c(NC(=O)c4ccccc4)ncnc32)cc1)c1ccc(Cl)c(C(F)(F)F)c1	2.3	5.5
